Laboratory results: US6538023B1, “Therapeutic uses of green tea polyphenols for sickle cell disease” (priority 2000, dated 2003)
“Also recorded” adds a separate entry of the source.

Tested on: sickle red blood cells (K-Cl cotransport)
Experiment: Inhibition of dense cell formation triggered by 500 mM urea (K-Cl cotransport) in sickle red blood cells
Type: cell-based, human
Details: 37 centigrade, 3 hours; for inhibition of dense cell formation (FIG. 4): 0.6 mM, oxygenated and deoxygenated conditions; for inhibition of dense cell formation: hematocrit 2%
Procedure: The reaction medium consists of: 150 mM NaCl, 1 mM MgSO4, 10 mM HEPES buffer and 10 mM glucose. The osmolarity of the medium was adjusted to 290 mOsm/kg using a freezing point osmometer and the pH was adjusted to 7.4
For in vitro tests, blood was obtained from adult sickle cell patients (using acid-citrate-dextrose as an anticoagulant) whose hemoglobin F content is less than 1% and whose content of irreversibly sickled cells is less than 10%. The blood could be used for 2 days as long as the air-space of the container was equilibrated with 95% air/5% CO2 and the container was gently tumbled (1 to 2 rpm) at 4° C.
Four ml of the density gradient solution (density=1.104) was poured into each of 15 ml COREX centrifuge tubes (Corning Glass), and the tubes were spun at 10,000 rpm for 5 min, by which a density gradient was automatically formed. Then, 100 μl of blood was overlayered on top of each pre-formed density gradient, and the tubes were span for 10 minutes at 2,500 rpm using a low speed centrifuge with a swing rotor.
When red blood cells of normal subject with normal hemoglobin were spun, they all stayed near a top portion of the gradient (FIG. 2A). […] Then, the red blood cells in the top layer of each tubes, which consists of “non-dense cells”, were collected, washed with the reaction medium, resuspended in the same medium, and used for the experiments.
As described above, tubes each containing 4 ml of the density gradient solution with the density of 1.104 were spun at 12,000 rpm for 5 min to form gradient density. K-Cl cotransport experiments were conducted by incubating a suspension of “non-dense cells” with the hematocrit value of 2% at 37 centigrade for 3 hours. Then, 50 μl of each non-dense cell suspension was overlayered on top of the pre-formed density gradient, and the tubes were span for 10 minutes at 2,500 rpm using a low speed centrifuge with a swing rotor. If 500 mM urea was added before the incubation, dense cells were formed due to the stimulation of K-Cl cotransport as shown in FIG. 2D.
When the bottom layer was formed, red cells in both the top and bottom layers were separately collected, washed and hemolyzed in 5 mM phosphate buffer (pH 7.4) containing 0.5 mM EDTA and 0.5% of a detergent, BRIJ-30. From the hemoglobin content as determined by spectrophotometry, we determined the percentage of dense cell formation (Ohnishi, S. T. British J. Haematology 55:665-671, 1983).
FIG. 3. Dense cells can be formed by incubating non-dense cells at 37 centigrade for 3 hours in the presence of 500 mM urea, which triggers K-Cl cotransport and concomitant dehydration. […] The formation can be inhibited by the addition of inhibitors before starting the incubation. […] However, neither 2 mM vitamin C nor 2 mM vitamin E inhibited the dense cell formation.
FIG. 4. The inhibition of dense cell formation triggered with 500 mM urea at 37 centigrade for 3 hours by different green tea polyphenols. Open columns are for the oxygenated condition and filled columns for the deoxygenated condition. Abbreviations. CH: (+)-Catechin; EC: (−)-Epicatechin; ECg: (−)-Epicatechin gallate; EGC: (−)-Epigallocatechin; and EGCg: (−)-Epigallocatechin gallate.

Compound: Oc1cc(O)c2c(c1)O[C@H](c1ccc(O)c(O)c1)[C@@H](O)C2 [CH, (+)-Catechin]
- inhibition of dense cell formation (FIG. 4): no effects

Compound: O=C(O[C@@H]1Cc2c(O)cc(O)cc2O[C@@H]1c1ccc(O)c(O)c1)c1cc(O)c(O)c(O)c1 [ECg, (−)-Epicatechin gallate]
- inhibition of dense cell formation (FIG. 4): significant effect

Compound: Oc1cc(O)c2c(c1)O[C@H](c1cc(O)c(O)c(O)c1)[C@H](O)C2 [EGC, (−)-Epigallocatechin]
- inhibition of dense cell formation (FIG. 4): significant effect

Compound: O=C1O[C@H]([C@@H](O)CO)C(O)=C1O [Vitamin C, reference compound]
- inhibition of dense cell formation (2 mM): no inhibitory effect

Compound: COC[C@@H]([C@H](O)[C@H](O)C(=O)NCC[C@H](C)c1nc(/C=C/C[C@@H]2O[C@]3(C[C@@H](O)[C@@H]2C)O[C@H]([C@H](C[C@H](O)[C@H](C)[C@H](O)[C@H](C)/C=C(C)/C(C)=C/C=C/C(C)=C\C#N)OC)[C@H](OP(=O)(O)O)C3(C)C)co1)N(C)C [calyculin A, reference compound]
- inhibition of dense cell formation (25 nM): inhibited the dense cell formation completely

Compound: C=C1[C@@H](O)[C@@H]2O[C@]3(CC[C@H](/C=C/[C@@H](C)[C@@H]4CC(C)=C[C@@]5(O[C@H](C[C@@](C)(O)C(=O)O)CC[C@H]5O)O4)O3)CC[C@H]2O[C@@H]1[C@@H](O)C[C@H](C)[C@H]1O[C@@]2(CCCCO2)CC[C@H]1C [okadaic acid, reference compound]
- inhibition of dense cell formation (100 nM): inhibited the dense cell formation completely

Compound: (−)-Epigallocatechin gallate [EGCg]
- inhibition of dense cell formation (FIG. 4): significant effect; also recorded: maximum inhibitory effect
- inhibition of dense cell formation (0.2-0.6 mM): effectively inhibited dense cell formation

Compound: Vitamin E [reference compound]
- inhibition of dense cell formation (2 mM): no inhibitory effect
